{"source": "patent US4327097A", "about": "“Novel penicillins” (Toyama Chemical Co., Ltd., priority 1974, dated 1982)", "key": {"Escherichia coli": {"system": "Escherichia coli", "assay": "MIC against clinical isolates", "assay_type": "cell-based", "details": "Table 5-2, clinical isolate; unit assumed"}, "Shigella sonnei": {"system": "Shigella sonnei", "assay": "MIC against clinical isolates", "assay_type": "cell-based", "details": "Table 5-5, clinical isolate; unit assumed", "experimental": "(§1) The minimum inhibitory concentration (MIC) was determined by the plate method disclosed in \"Chemotherapy\" (Japan), Vol. 16, (1968), pages 98-99. The culture medium used was a Heart infusion agar (pH 7.4). The number of the cells per plate used in the inoculum was 10^4 (10^6 cells/ml).\n(§2) MIC was determined in the same manner as in the preceding paragraph (1)."}, "Shigella flexneri": {"system": "Shigella flexneri", "assay": "MIC against clinical isolates", "assay_type": "cell-based", "details": "Table 5-5, clinical isolate; unit assumed", "experimental": "as §1, §2"}, "Proteus vulgaris 3027": {"system": "Proteus vulgaris 3027", "assay": "MIC, plate method, standard strains", "assay_type": "cell-based", "details": "unit assumed", "outline": "(§3)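 Heart infusion agar, pH 7.4, plate method. Inoculum: 10^4 cells/plate (10^6 cells/ml). Read-out: MIC.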"}, "Escherichia coli NIHJ": {"system": "Escherichia coli NIHJ", "assay": "MIC, plate method, standard strains", "assay_type": "cell-based", "details": "unit assumed; for MIC Escherichia coli NIHJ: Table 4, standard strain", "outline": "as §3"}, "Pseudomonas aeruginosa": {"system": "Pseudomonas aeruginosa", "assay": "MIC against clinical isolates", "assay_type": "cell-based", "details": "unit assumed"}, "Klebsiella pneumoniae [1]": {"system": "Klebsiella pneumoniae", "assay": "MIC against clinical isolates", "assay_type": "cell-based", "details": "Table 5-4, clinical isolate; unit assumed"}, "Proteus vulgaris": {"system": "Proteus vulgaris", "assay": "MIC against clinical isolates", "assay_type": "cell-based", "details": "Table 5-6, clinical isolate; unit assumed"}, "[2]": {"system": "β-lactamase, Pseudomonas aeruginosa GN 238", "assay": "Resistant activity against β-lactamase, iodometric assay", "assay_type": "biochemical", "details": "β-lactamase from Pseudomonas aeruginosa GN 238; Potassium Penicillin G = 100", "experimental": "(3) Resistant activity against β-lactamase, Pseudomonas aerugionsa GN 238:\nThe resistant activity of each compound against β-lactamase was measured in the manner described below.\nβ-Lactamase was prepared from Pseudomonas aeruginosa GN 238. This microorganism was cultured in 100 ml of a medium containing 2 g of yeast extract, 10 g of polypeptone, 2 g of glucose, 7 g of disodium hydrogen phosphate, 2 g of potassium dihydrogen phosphate, 1.2 g of ammonium sulfate and 0.4 g of magnesium sulfate, per liter, in a 500-ml Erlenmeyer flask for 6 hrs. at 37° C. with shaking. The resulting cells were collected by centrifugation (5,000 r.p.m.×10 min.), washed three times with 0.1 M phosphate buffer (pH 7.0). Subsequently, the cells were subjected to sonication (20 KHz, 20 min.) and then centrifuged at 15,000 r.p.m. for 60 min. By using the supernatant of enzyme fluid, the resistance of each compound against β-lactamase was determined by the iodometric assay method. Each numeral shown in Table 7 is a relative activity value calculated by assuming as 100 the activity of the control Potassium Penicillin G."}, "Staphylococcus aureus": {"system": "Staphylococcus aureus", "assay": "MIC against clinical isolates", "assay_type": "cell-based", "details": "Table 5-1, clinical isolate; unit assumed"}, "Salmonella typhi-murium": {"system": "Salmonella typhi-murium", "assay": "MIC against clinical isolates", "assay_type": "cell-based", "details": "Table 5-5, clinical isolate; unit assumed"}, "Proteus mirabilis": {"system": "Proteus mirabilis", "assay": "MIC against clinical isolates", "assay_type": "cell-based", "details": "Table 5-6, clinical isolate; unit assumed"}, "[3]": {"system": "Pseudomonas aeruginosa I.F.O.", "assay": "MIC, plate method, standard strains", "assay_type": "cell-based", "details": "Table 4, standard strain; unit assumed", "outline": "as §3"}, "[4]": {"system": "Staphylococcus aureus 209p", "assay": "MIC, plate method, standard strains", "assay_type": "cell-based", "details": "Table 4, standard strain; unit assumed", "outline": "as §3"}, "Klebsiella pneumoniae [5]": {"system": "Klebsiella pneumoniae", "assay": "MIC, plate method, standard strains", "assay_type": "cell-based", "details": "Table 4, standard strain; unit assumed", "outline": "as §3"}, "[6]": {"molecular_target": "T1, β-lactamase, Proteus vulgaris GN 76 (Proteus vulgaris, UniProt P52664)", "T1 construct": "By using the supernatant of enzyme fluid; endogenous in cells; host or cells: Proteus vulgaris GN 76 (penicillin G-induced cells, sonicated, 15,000 r.p.m. supernatant)", "T1 sequence (P52664 30-300)": "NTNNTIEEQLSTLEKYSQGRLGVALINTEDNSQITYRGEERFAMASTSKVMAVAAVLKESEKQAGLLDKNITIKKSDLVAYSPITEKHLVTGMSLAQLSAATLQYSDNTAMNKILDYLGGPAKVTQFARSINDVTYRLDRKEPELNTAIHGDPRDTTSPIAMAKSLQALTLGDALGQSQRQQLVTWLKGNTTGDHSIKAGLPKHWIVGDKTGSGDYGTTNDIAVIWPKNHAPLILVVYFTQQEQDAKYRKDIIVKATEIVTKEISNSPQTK", "assay": "Resistant activity against β-lactamase, iodometric assay", "assay_type": "biochemical", "details": "control Cephalorizine = 100", "experimental": "(§4) (4) Resistant activity of each cephalosporin compound against β-lactamase, Proteus vulgaris GN 76 and Escherichia freundii GN 346:\n(§5) The resistant activity of each cephalosporin compound against β-lactamase was measured in the manner described below.\n(§6) β-lactamase was prepared from Proteus vulgaris GN 76 and Escherichia freundii GN 346. 10 ml of an overnight culture in Heart Infusion broth was diluted with 100 ml of a medium containing 2 g of yeast extract, 10 g of polypeptone, 2 g of glucose, 7 g of disodium hydrogen phosphate, 2 g of potassium dihydrogen phosphate, 1.2 g of ammonium sulfate and 0.4 g of magnesium sulfate, per liter, and incubated with shaking at 37° C. After incubation of 2 hrs, Penicillin G (50 μg/ml) was added as the inducer, and further incubated for 2 hrs. The resulting cells were collected by centrifugation (5,000 r.p.m.×10 min.) and washed two times with 0.1 M phosphate buffer (pH 7.0). Subsequently, the cells were subjected to sonication (20 KHz, 5 min.) and then centrifuged at 15,000 r.p.m. for 60 min. By using the supernatant of enzyme fluid, the stability of each compound against β-lactamase was determined by the iodometric assay method. Each numeral shown in Table 7-2 is a relative activity value calculated by assuming as 100 the activity of the control Cephalorizine."}, "[7]": {"molecular_target": "β-lactamase, Escherichia freundii GN 346 (Citrobacter freundii, UniProt Q46041)", "sequence (Q46041 entry or part of it)": "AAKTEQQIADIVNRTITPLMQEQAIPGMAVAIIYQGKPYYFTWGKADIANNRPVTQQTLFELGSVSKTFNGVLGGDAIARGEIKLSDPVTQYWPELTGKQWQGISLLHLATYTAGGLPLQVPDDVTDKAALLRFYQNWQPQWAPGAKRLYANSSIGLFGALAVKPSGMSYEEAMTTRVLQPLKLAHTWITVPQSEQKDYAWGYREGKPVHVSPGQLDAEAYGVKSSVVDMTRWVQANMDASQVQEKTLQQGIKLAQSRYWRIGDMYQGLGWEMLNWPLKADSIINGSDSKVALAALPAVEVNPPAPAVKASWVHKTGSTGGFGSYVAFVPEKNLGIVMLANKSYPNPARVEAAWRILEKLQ", "assay": "Resistant activity against β-lactamase, iodometric assay", "assay_type": "biochemical", "details": "control Cephalorizine = 100", "experimental": "as §4, §5, §6"}}, "data": [{"smiles": "CCCCCN1CCN(C(=O)NC(C(=O)NC2C(=O)N3C2SC(C)(C)C3C(=O)O)c2ccccc2)C(=O)C1=O", "note": "(single isomer, unassigned) [Compound 45]", "values": [{"measurement": "MIC Escherichia coli GN 3452", "setting": "Escherichia coli", "value": 1.57, "unit": "µg/mL"}, {"measurement": "MIC Escherichia coli GN 3481", "setting": "Escherichia coli", "value": 1.57, "unit": "µg/mL"}, {"measurement": "MIC Escherichia coli GN 3611", "setting": "Escherichia coli", "value": "> 200", "unit": "µg/mL"}, {"measurement": "MIC Escherichia coli K-2", "setting": "Escherichia coli", "value": 1.57, "unit": "µg/mL"}, {"measurement": "MIC Escherichia coli K-3", "setting": "Escherichia coli", "value": 200, "unit": "µg/mL"}, {"measurement": "MIC Shigella sonnei JS 11232", "setting": "Shigella sonnei", "value": 25, "unit": "µg/mL"}, {"measurement": "MIC Shigella sonnei JS 11755", "setting": "Shigella sonnei", "value": 1.57, "unit": "µg/mL"}, {"measurement": "MIC Shigella flexneri JS 11215", "setting": "Shigella flexneri", "value": 25, "unit": "µg/mL"}, {"measurement": "MIC Shigella flexneri JS 11839", "setting": "Shigella flexneri", "value": 1.57, "unit": "µg/mL"}, {"measurement": "MIC Proteus vulgaris 3027", "setting": "Proteus vulgaris 3027; Table 3, standard strain", "value": 0.4, "unit": "µg/mL"}, {"measurement": "MIC Esche--richin coil NIHJ", "setting": "Escherichia coli NIHJ; Table 3, standard strain", "value": "< 0.1", "unit": "µg/mL"}, {"measurement": "MIC Pseudomonas aeruginosa GN 1035", "setting": "Pseudomonas aeruginosa; Table 5-3, clinical isolate", "value": 50, "unit": "µg/mL"}, {"measurement": "MIC Pseudomonas neruginosa S-3", "setting": "Pseudomonas aeruginosa; Table 5-4, clinical isolate", "value": 50, "unit": "µg/mL"}, {"measurement": "MIC Klebsiella pneumoniae GN 917", "setting": "Klebsiella pneumoniae [1]", "value": 1.57, "unit": "µg/mL"}, {"measurement": "MIC Proteus vulgaris", "setting": "Proteus vulgaris", "value": "< 0.4", "unit": "µg/mL"}, {"measurement": "Relative activity (%), resistant activity against β-lactamase", "setting": "[2]", "value": 16, "unit": "%"}, {"measurement": "MIC Staphylococcus aureus F-2", "setting": "Staphylococcus aureus", "value": 1.57, "unit": "µg/mL"}, {"measurement": "MIC Staphylococcus aureus F-3", "setting": "Staphylococcus aureus", "value": 1.57, "unit": "µg/mL"}, {"measurement": "MIC Staphylococcus aureus F-5", "setting": "Staphylococcus aureus", "value": "> 200", "unit": "µg/mL"}, {"measurement": "MIC Salmonella typhi-murium SL 2136", "setting": "Salmonella typhi-murium", "value": 200, "unit": "µg/mL"}, {"measurement": "MIC Proteus mirabilis", "setting": "Proteus mirabilis", "value": "< 0.4", "unit": "µg/mL"}]}, {"smiles": "CCN1CCN(C(=O)NC(C(=O)NC2C(=O)N3C(C(=O)O)=C(COC(C)=O)CSC23)c2ccc(O)cc2)C(=O)C1=O", "note": "(single isomer, unassigned) [Compound No. 81]", "values": [{"measurement": "MIC Pseudomonas aeruginosa I.F.O.", "setting": "[3]", "value": 12.5, "unit": "µg/mL"}, {"measurement": "MIC Staphylococcus aureus 209p", "setting": "[4]", "value": "< 1.57", "unit": "µg/mL"}, {"measurement": "MIC Klebsiella pneumoniae", "setting": "Klebsiella pneumoniae [5]", "value": "< 1.57", "unit": "µg/mL"}, {"measurement": "MIC Proteus vulgaris 3027", "setting": "Proteus vulgaris 3027; Table 4, standard strain", "value": "< 1.57", "unit": "µg/mL"}, {"measurement": "MIC Escherichia coli NIHJ", "setting": "Escherichia coli NIHJ", "value": "< 1.57", "unit": "µg/mL"}, {"measurement": "Relative activity (%) against β-lactamase, Pr. vulgaris GN 76", "setting": "[6]", "value": 6, "unit": "%"}, {"measurement": "Relative activity (%) against β-lactamase, E. freundii GN 346", "setting": "[7]", "value": 0.4, "unit": "%"}]}, {"smiles": "CCN1CCN(C(=O)NC(C(=O)NC2C(=O)N3C(C(=O)O)=C(COC(N)=O)CSC23)c2ccc(O)cc2)C(=O)C1=O", "note": "(single isomer, unassigned) [Compound No. 84]", "values": [{"measurement": "MIC Pseudomonas aeruginosa I.F.O.", "setting": "[3]", "value": 25, "unit": "µg/mL"}, {"measurement": "MIC Staphylococcus aureus 209p", "setting": "[4]", "value": "< 1.57", "unit": "µg/mL"}, {"measurement": "MIC Klebsiella pneumoniae", "setting": "Klebsiella pneumoniae [5]", "value": "< 1.57", "unit": "µg/mL"}, {"measurement": "MIC Proteus vulgaris 3027", "setting": "Proteus vulgaris 3027; Table 4, standard strain", "value": "< 1.57", "unit": "µg/mL"}, {"measurement": "MIC Escherichia coli NIHJ", "setting": "Escherichia coli NIHJ", "value": "< 1.57", "unit": "µg/mL"}, {"measurement": "Relative activity (%) against β-lactamase, Pr. vulgaris GN 76", "setting": "[6]", "value": 10, "unit": "%"}, {"measurement": "Relative activity (%) against β-lactamase, E. freundii GN 346", "setting": "[7]", "value": 1, "unit": "%"}]}]}
